In patent US20230407243A1, “GENETIC PLATFORM TO INVESTIGATE THE FUNCTIONS OF BACTERIAL DRUG EFFLUX PUMPS” (priority 2022, published 2023):

Experiments:
Assay type in all cases: cell-based, Escherichia coli
[1] = test system: EKO-35-Pore expressing the P. aeruginosa pump mexCD; test: Checkerboard synergy (FICI), porinated strain
In short: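 Checkerboard broth microdilution in MHB II followed CLSI guidelines, with MIC defined as the lowest concentration giving no growth by OD600. FICI was calculated as CA/MICA + CB/MICB for PAβN or NMP combined with an antibiotic, with <0.5 classed as synergistic. Efflux-attributed fold resistance is the strain MIC divided by the EKO-35 MIC.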

EKO-35 gyrB (pCA24N) = test: MIC of strains harboring ASKA plasmids; conditions: 0.1 mM IPTG
EKO-35 rspA (pCA24N) = test: MIC of strains harboring ASKA plasmids; conditions: 0.1 mM IPTG
EKO-35 pitA (pCA24N) = test: MIC of strains harboring ASKA plasmids; conditions: 0.1 mM IPTG; no plasmid selection
EKO-35 yjfC (pCA24N) = test: MIC of strains harboring ASKA plasmids; conditions: 0.1 mM IPTG
[2] = test system: EKO-35 strains with integrated RND tripartite efflux pumps (AcrB, AcrEF, AcrD, and MdtEF) with pGDP2:emrE or empty pGDP-2; test: Efflux pump interplay MIC profiling (pGDP2:emrE); conditions: Pore −
[3] = test system: EKO-35-Pore strains with integrated AcrB, AcrEF, AcrD, MdtEF with pGDP2:emrE or empty pGDP-2; test: Efflux pump interplay MIC profiling (pGDP2:emrE), porinated; conditions: Pore +
Excerpt: This plasmid enables single-copy genomic integration of a selected gene through integration into the nonessential araC gene within the arabinose operon (Cox, G. et al., 2022). All E. coli genes were amplified from E. coli BW25113 genomic DNA, and mexCD was amplified from P. aeruginosa PAO1, using a high-fidelity polymerase, followed by ligation into pINT2. Successful clones were verified using PCR (Primers: pLac-Fwd/pINT-Rev, Table 4) and confirmed via Sanger sequencing at The Centre for Applied Genomics (TCAG) (The Hospital for Sick Children) and the AAC (University of Guelph). For the interplay studies, this process was repeated using the pGDP2 plasmid (Cox, G. et al., 2022).
To enable comparison between efflux production in different genetic backgrounds, each efflux pump-encoding gene was also integrated into the genome of the wild-type BW25113 strain, the single gene deletion mutant from the Keio Collection, and EKO-35. Strains of interest were propagated on LB agar at 37° C. Cell inoculum was prepared using the colony resuspension method and applied to a 96-well well plate (VWR) in technical duplicate, and the minimum inhibitory concentrations were determined according to Clinical & Laboratory Standards Institute (CLSI) protocols in MHB II (Patel J. B. et al, 2015). The plates were incubated for 18 h (Multitron Shaker, Infors HT) at 37° C. with aeration at 900 rpm. The plates were equilibrated to room temperature before the OD600 nm was measured using a BioTek Synergy H1 microplate reader. For interplay profiling, blank subtracted OD600 nm values >0.1 were considered to represent growth.
To investigate, the EKO-35-Pore strains were profiled using the same approach.

[4] = EKO-35 mexCD Pore, NMP + antibiotic
[5] = EKO-35 mexCD Pore, PAβN + antibiotic
[6] = strain EKO-35 mexCD Pore, NMP + antibiotic
[7] = 4 μg/mL chloramphenicol selection

CC[C@H]1OC(=O)[C@H](C)[C@@H](O[C@H]2C[C@@](C)(OC)[C@@H](O)[C@H](C)O2)[C@H](C)[C@@H](O[C@@H]2O[C@H](C)C[C@H](N(C)C)[C@H]2O)[C@](C)(O)C[C@@H](C)C(=O)[C@H](C)[C@@H](O)[C@]1(C)O [erythromycin]
Effect [1, 4]: Additive | FICI [1, 4]: 0.565 | Effect [1, 5]: Synergistic | FICI [1, 5]: 0.385 | MICb Alone ([1]; EKO-35 mexCD Pore, antibiotic alone (PAβN checkerboard)): 0.5 µg/mL | MICb Combined ([1]; EKO-35 mexCD Pore, antibiotic in combination with PAβN): 0.13 µg/mL | Effect [1, 6]: Additive (additive (FICI >0.5-1.0)) | FICI [1, 6]: 0.565 | MICb Alone ([1]; strain EKO-35 mexCD Pore, antibiotic alone): 2 µg/mL | MICb Combined ([1]; strain EKO-35 mexCD Pore, antibiotic in combination with NMP): 0.13 µg/mL

O=C(Nc1ccccc1C(=O)Nc1nnc(C(F)(F)F)s1)c1ccccc1Cl [compound 19]
MIC, EKO-35 gyrB (pCA24N), Chlor + (EKO-35 gyrB (pCA24N); [7]): >5 μg/mL | MIC, EKO-35 gyrB (pCA24N), Chlor − (EKO-35 gyrB (pCA24N); no plasmid selection): >5 μg/mL | MIC, EKO-35 rspA (pCA24N), Chlor + (EKO-35 rspA (pCA24N); [7]): >5 μg/mL | MIC, EKO-35 rspA (pCA24N), Chlor − (EKO-35 rspA (pCA24N); no plasmid selection): >5 μg/mL | MIC, EKO-35 pitA (pCA24N), Chlor − (EKO-35 pitA (pCA24N)): >5 μg/mL | MIC, EKO-35 yjfC (pCA24N), Chlor + (EKO-35 yjfC (pCA24N); [7]): >5 μg/mL | MIC, EKO-35 yjfC (pCA24N), Chlor − (EKO-35 yjfC (pCA24N); no plasmid selection): >5 μg/mL

CC[n+]1c(-c2ccccc2)c2cc(N)ccc2c2ccc(N)cc21 [ethidium bromide]
MIC ([2]; strain EKO-35): 0.122 µg/mL | Fold Change from EKO-35 ([2]; strain EKO-35 pEmrE): 4 | MIC ([2]; strain EKO-35 pEmrE): 0.488 µg/mL | Fold Change from EKO-35 ([2]; strain acrB pEmrE): 256 | MIC ([2]; strain acrB pEmrE): 31.2 µg/mL | Fold Change from EKO-35 ([2]; strain acrB): 64 | MIC ([2]; strain acrB): 7.81 µg/mL | Fold Change from EKO-35 ([2]; strain acrD pEmrE): 16 | MIC ([2]; strain acrD pEmrE): 1.95 µg/mL | Fold Change from EKO-35 ([2]; strain acrD): 2 | MIC ([2]; strain acrD): 0.244 µg/mL | Fold Change from EKO-35 ([2]; strain acrEF pEmrE): 64 | MIC ([2]; strain acrEF pEmrE): 7.81 µg/mL | Fold Change from EKO-35 ([2]; strain acrEF): 16 | MIC ([2]; strain acrEF): 1.95 µg/mL | Fold Change from EKO-35 ([2]; strain mdtEF pEmrE): 32 | MIC ([2]; strain mdtEF pEmrE): 3.91 µg/mL | Fold Change from EKO-35 ([2]; strain mdtEF): 8 | MIC ([2]; strain mdtEF): 0.977 µg/mL | MIC ([3]; strain EKO-35): 0.061 µg/mL | Fold Change from EKO-35 ([3]; strain EKO-35 pEmrE): 4 | Fold Change from EKO-35 ([3]; strain acrB pEmrE): 256 | MIC ([3]; strain acrB pEmrE): 15.6 µg/mL | Fold Change from EKO-35 ([3]; strain acrB): 64 | MIC ([3]; strain acrB): 3.91 µg/mL | Fold Change from EKO-35 ([3]; strain acrD pEmrE): 8 | Fold Change from EKO-35 ([3]; strain acrD): 1 | MIC ([3]; strain acrD): 0.061 µg/mL | Fold Change from EKO-35 ([3]; strain acrEF pEmrE): 64 | MIC ([3]; strain acrEF pEmrE): 3.91 µg/mL | Fold Change from EKO-35 ([3]; strain acrEF): 16 | Fold Change from EKO-35 ([3]; strain mdtEF pEmrE): 32 | MIC ([3]; strain mdtEF pEmrE): 1.95 µg/mL | Fold Change from EKO-35 ([3]; strain mdtEF): 8
